According to publication PMC9739695, “Water-Soluble Salts Based on Benzofuroxan Derivatives—Synthesis and Biological Activity” (International Journal of Molecular Sciences, 2022):
Read-outs that look alike come from different tables or passages of the source.

Experiments:
alfalfa seeds = test: Pre-sowing seed treatment, sowing qualities of alfalfa seeds; assay type: in vivo; conditions: control 76
Procedure: (§1) When evaluating the effectiveness of treatment of wheat, alfalfa, barley, rice, and sorghum seeds as fungicidal and bactericidal agents with preparation compounds at concentrations of 10, 20, and 40 mmol, their effect on the suppression of seed infection was evaluated.
(§2) […] The sowing qualities were evaluated (germination energy for 3–4 days, laboratory germination for 7–8 days) according to GOST 12038-84 [60]. Sowing qualities of seeds were determined in wet chambers. According to the sample, 50 seeds were taken in 4-fold repetition.

SH-SY5Y (neuroblastoma) = test: Cell viability, MTT test; assay type: cell-based, Human; conditions: Homo sapiens, SH-SY5Y, test range 0.1 to 100 μM, read-out: IC50 (concentration causing 50% inhibition of cell population growth)
Procedure: (§3) In this work, the cytotoxic potential of the water-soluble salts based on benzofuroxan was determined by the effect of compounds on the survival of the cell tumor origin cultures (SH-SY5Y, Hep2, A549, HeLa) using the MTT test. To understand how the synthesized compounds can influence the healthy microenvironment in the body, the effect of substances on the viability of a normal Hek 293 cell culture was additionally evaluated.
(§4) Human cell cultures of tumor origin—SH-SY5Y (neuroblastoma), HeLa (cervical tumor), Hep-2 (larynx carcinoma), A549 (adenocarcinomic human alveolar basal epithelial cells)—and normal cell line Hek 293 (human embryonic kidneys), provided by the Laboratory of Tumor Cell Genetics of the Scientific Research Institute of Carcinogenesis, N.N. Blokhin National Medical Research Center of Oncology, as well as the Institute of Cytology of the Russian Academy of Sciences, were grown in a nutrient medium DMEM (PanEco, Moscow, Russia) and MEM (PanEco, Moscow, Russia), containing fetal bovine serum (10% by volume) (ThermoFisher Scientific, Paisley, UK), Glutamax (2 mM) (Gibco, Scotland, UK), and penicillin-streptomycin (1% by volume) (PanEco, Moscow, Russia). The cultivation was carried out at 37 °C in a humidified CO2 atmosphere (5%).
(§5) Cell viability was determined by MTT test. Cells were seeded in a 96-well plate in the amount of 1 × 10^4 cells/200µLof complete nutrient medium and cultured at 37 °C in CO2 (5%). After 24 h of incubation, various concentrations of test compounds in the range from 0.1 to 100 μM, were added to the cell cultures, and then the cells were cultured under the same conditions for 24 and 72 h. For each concentration, the experiment was carried out in triplicate.
(§6) All compounds were dissolved in DMSO, then diluted with the medium to the required concentration. […] The DMSO was also added to the control wells in a volume of 1%. After the incubation time, MTT (3-(4,5-dimethylthiazol-2-yl)-2,5-diphenyltetrazolium bromide, 5 mg/mL) was added to each well and plates were additionally incubated for 2 h (until the characteristic color appeared).
(§7) Using a plate analyzer (Cytation3, BioTech Instruments Inc., Winooski, VT, USA), the optical density was determined at 530 nm. The concentration value causing 50% inhibition of cell population growth (IC50) was determined from dose-dependent curves.

barley seeds = test: Pre-sowing seed treatment, sowing qualities of barley seeds; assay type: in vivo; conditions: control 95.2
Procedure: as §1, §2

[1] = test system: A549 (adenocarcinomic human alveolar basal epithelial cells); test: Cell viability, MTT test; assay type: cell-based; conditions: test range 0.1 to 100 μM, read-out: IC50 (concentration causing 50% inhibition of cell population growth)
Procedure: as §3, §4, §5, §6, §7

Hep-2 (larynx carcinoma) = test: Cell viability, MTT test; assay type: cell-based; conditions: Homo sapiens, HEp-2, test range 0.1 to 100 μM, read-out: IC50 (concentration causing 50% inhibition of cell population growth)
Procedure: as §3, §4, §5, §6, §7

HeLa (cervical tumor) = test: Cell viability, MTT test; assay type: cell-based; conditions: Homo sapiens, test range 0.1 to 100 μM, read-out: IC50 (concentration causing 50% inhibition of cell population growth)
Procedure: as §3, §4, §5, §6, §7

[2] = test system: fungal microflora (mushrooms) on alfalfa seeds; test: Growth of fungal microflora on treated alfalfa seeds; assay type: cell-based
Procedure: (§8) During phytopathological analyses of agricultural crops, the species composition of fungal and bacterial microflora was established. Laboratory studies were carried out on two nutrient media potato-agar (ingredients: potatoes—200 g; agar-agar—20 g; distilled water—1000 mL.) and potato-dextrose agar (ingredients: potatoes—200 g;dextrose—20 g; agar-agar—20 g; distilled water—1000 mL), according to the guidelines.
When evaluating the effectiveness of treatment of wheat, alfalfa, barley, rice, and sorghum seeds as […], their effect on the suppression of seed infection was evaluated.

wheat seeds = test: Pre-sowing seed treatment, sowing qualities of wheat seeds; assay type: in vivo; conditions: for germination energy: control 82; for laboratory germination: control 85.7
Procedure: as §1, §2

[3] = test system: Hek 293 (human embryonic kidneys); test: Cell viability, MTT test, normal cell line; assay type: cell-based; conditions: HEK293, Hek 293 normal cells, test range 0.1 to 100 μM, read-out: IC50 (concentration causing 50% inhibition of cell population growth)
Procedure: as §3, §4, §5, §6, §7

rice seeds = test: Pre-sowing seed treatment, sowing qualities of rice seeds; assay type: in vivo; conditions: for germination energy: control 71.4; for laboratory germination: control 95.2
Procedure: as §1, §2

[4] = test system: bacterial microflora on rice seeds; test: Growth of bacterial microflora on treated rice seeds; assay type: cell-based
Procedure: as §8, §1

sorghum seeds = test: Pre-sowing seed treatment, sowing qualities of sorghum seeds; assay type: in vivo; conditions: for germination energy: control 52.3; for laboratory germination: control 57
Procedure: as §1, §2

[5] = test system: bacterial microflora on barley seeds; test: Growth of bacterial microflora on treated barley seeds; assay type: cell-based
Procedure: as §8, §1

IC50 (SH-SY5Y (neuroblastoma); incubation 24 h): 24.3 ± 1.91 µM
IC50 (SH-SY5Y (neuroblastoma); incubation 72 h): 22.8 ± 1.9 µM
IC50 (Hep-2 (larynx carcinoma); Hep2, incubation 24 h): 91.3 ± 1.4 µM
IC50 (Hep-2 (larynx carcinoma); Hep2, incubation 72 h): 89.9 ± 3.12 µM
IC50 (HeLa (cervical tumor); incubation 24 h): 40.5 ± 1.9 µM
IC50 (HeLa (cervical tumor); incubation 72 h): 35.47 ± 0.12 µM
Structure (SMILES): O=[N+]([O-])c1c(Cl)cc2c(no[n+]2[O-])c1NCCN1CCOCC1 [4d, 6-chloro-4-(2-(morpholino-4-ium)ethylamino)-5-nitrobenzo[c][1,2,5]oxadiazole 1-oxide chloride]
germination energy (alfalfa seeds; 10 mmol): 43.3%
laboratory germination (alfalfa seeds; 10 mmol): 50%
germination energy (alfalfa seeds; 20 mmol): 63.3%
laboratory germination (alfalfa seeds; 20 mmol): 73.3%
germination energy (alfalfa seeds; 40 mmol): 78%
laboratory germination (alfalfa seeds; 40 mmol): 80.5%
germination energy (barley seeds; 10 mmol): 71.4%
laboratory germination (barley seeds; 10 mmol): 71.4%
germination energy (barley seeds; 20 mmol): 66.6%
laboratory germination (barley seeds; 20 mmol): 66.6%
germination energy (barley seeds; 40 mmol): 95%
laboratory germination (barley seeds; 40 mmol): 98.5%
IC50 ([1]; A549, incubation 24 h): > 100 µM
IC50 ([1]; A549, incubation 72 h): 98.21 ± 0.1 µM
effect on fungal microflora ([2]; 10 mmol): positive effect on the suppression of fungal microflora
effect on fungal microflora ([2]; 20 mmol): positive effect on the suppression of fungal microflora
germination energy (wheat seeds; 10 mmol): 47.6%
laboratory germination (wheat seeds; 10 mmol): 47.6%
germination energy (wheat seeds; 20 mmol): 71.4%
laboratory germination (wheat seeds; 20 mmol): 71.4%
sowing qualities of seeds compared with control (wheat seeds; 40 mmol): higher than in the case of controls
germination energy (wheat seeds; 40 mmol): 98%
laboratory germination (wheat seeds; 40 mmol): 98.5%
IC50 ([3]; incubation 24 h): 40.8 ± 2.84 µM
IC50 ([3]; incubation 72 h): 28.1 ± 0.93 µM
germination energy (rice seeds; 10 mmol): 52.3%
laboratory germination (rice seeds; 10 mmol): 52.3%
germination energy (rice seeds; 20 mmol): 47.6%
laboratory germination (rice seeds; 20 mmol): 95.2%
sowing qualities of seeds compared with control (rice seeds; 40 mmol): better results than the control
germination energy (rice seeds; 40 mmol): 99%
laboratory germination (rice seeds; 40 mmol): 99%
effect on bacterial microflora ([4]; 10 mmol): positive effect on the suppression of bacterial microflora
effect on bacterial microflora ([4]; 20 mmol): positive effect on the suppression of bacterial microflora
germination energy (sorghum seeds; 10 mmol): 33.3%
laboratory germination (sorghum seeds; 10 mmol): 40%
sowing qualities of seeds compared with control (sorghum seeds; 20 mmol): higher than in the control
germination energy (sorghum seeds; 20 mmol): 76.1%
laboratory germination (sorghum seeds; 20 mmol): 80.9%
germination energy (sorghum seeds; 40 mmol): 58.5%
laboratory germination (sorghum seeds; 40 mmol): 61.5%
effect on bacterial microflora ([5]; 10 mmol): slight suppression of the bacterial microflora
effect on bacterial microflora ([5]; 40 mmol): slight suppression of the bacterial microflora
